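Values below derive from 48-hour exposures of cells grown in 96-well plates, with endpoints linearly interpolated between the two concentrations bracketing the appropriate inhibition level. Here, GI50 denotes the concentration required for 50% inhibition of growth. TGI denotes the concentration required for complete inhibition of growth.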
What was measured:
Assay in all cases: growth of human tumour cells (NCI), 48 h
[1] = system: A498 renal
[2] = system: SK-MEL-28 melanoma
[3] = system: HCT-15 colon
[4] = system: LOX IMVI melanoma
[5] = system: OVCAR-8 ovarian
[6] = system: MALME-3M melanoma
[7] = system: SW-620 colon
[8] = system: MDA-MB-231 breast
[9] = system: HT29 colon
[10] = system: BT-549 breast
[11] = system: T-47D breast
[12] = system: EKVX NSCLC
[13] = system: NCI-H226 lung
[14] = system: ACHN renal
[15] = system: RPMI-8226 leukemia
[16] = system: UO-31 renal
[17] = system: K-562 leukemia
[18] = system: A549 NSCLC
[19] = system: SK-MEL-5 melanoma
[20] = system: SR leukemia
[21] = system: NCI-H23 lung
[22] = system: SNB-19 CNS
[23] = system: HCT-116 colon
[24] = system: UACC-62 melanoma
[25] = system: M14 melanoma
[26] = system: NCI-H460 lung
[27] = system: NCI-H522 lung
[28] = system: KM12 colon
[29] = system: MCF7 breast
[30] = system: TK-10 renal
[31] = system: RXF 393 renal
[32] = system: HOP-62 NSCLC
[33] = system: OVCAR-4 ovarian
[34] = system: OVCAR-3 ovarian
[35] = system: DU-145 prostate
[36] = system: CCRF-CEM leukemia
[37] = system: UACC-257 melanoma
[38] = system: SNB-75 CNS
[39] = system: HS 578T breast
[40] = system: CAKI-1 renal
[41] = system: SF-268 CNS
[42] = system: U251 CNS
[43] = system: COLO 205 colon
[44] = system: MDA-MB-435
[45] = system: 786-0 renal
[46] = system: SK-OV-3 ovarian
[47] = system: SK-MEL-2 melanoma
[48] = system: PC-3 prostate
[49] = system: HCC-2998 colon
[50] = system: SN12C renal
[51] = system: SF-539 CNS
[52] = system: HOP-92 NSCLC
[53] = system: SF-295 CNS
[54] = system: NCI/ADR-RES ovarian
[55] = system: IGROV1 ovarian
[56] = system: OVCAR-5 ovarian
[57] = system: MOLT-4 leukemia
[58] = system: HL-60(TB) leukemia

CCN(CC)CCOc1ccc(/C=C2\CC3C4CC=C5C[C@@H](N6CCCC6)CC[C@]5(C)C4CC[C@]3(C)[C@H]2OC(C)=O)cc1OC (stereo partly specified) gave a GI50 [1] of 1960 nM, a TGI [1] of 3460 nM and a GI50 [2] of 1710 nM. It also gave a TGI [2] of 3560 nM, a GI50 [3] of 1080 nM and a TGI [3] of 2450 nM. The GI50 [4] was 1030 nM, the TGI [4] was 2400 nM and the GI50 [5] was 1070 nM. For the same compound, the TGI [5] was 3470 nM, the GI50 [6] was 579 nM and the TGI [6] was 1240 nM. The GI50 [7] was 555 nM, the TGI [7] was 1920 nM and the GI50 [8] was 1730 nM. For the same compound, the TGI [8] was 3250 nM, the GI50 [9] was 144 nM and the TGI [9] was greater than 44100 nM. The GI50 [10] was 1800 nM, the TGI [10] was 3520 nM and the GI50 [11] was 1030 nM. The TGI [11] was 2210 nM, the GI50 [12] was 1590 nM and the TGI [12] was 3470 nM. It also gave a GI50 [13] of 1260 nM, a TGI [13] of 3300 nM and a GI50 [14] of 791 nM. For the same compound, the TGI [14] was 1560 nM, the GI50 [15] was 124 nM and the TGI [15] was 5240 nM. The GI50 [16] was 2280 nM, the TGI [17] was greater than 36000 nM and the GI50 [18] was 1640 nM. For the same compound, the TGI [18] was 3670 nM, the GI50 [19] was 720 nM and the TGI [19] was 1390 nM. The GI50 [20] was 191 nM, the TGI [20] was 444 nM and the GI50 [21] was 1630 nM. It also gave a TGI [21] of 3320 nM, a GI50 [22] of 698 nM and a TGI [22] of 3470 nM. The GI50 [23] was 132 nM, the TGI [23] was 548 nM and the GI50 [24] was 715 nM. For the same compound, the TGI [24] was 1410 nM, the GI50 [25] was 133 nM and the TGI [25] was 217 nM. For the same compound, the GI50 [26] was 1600 nM, the TGI [26] was 4460 nM and the GI50 [27] was 2350 nM. For the same compound, the GI50 [28] was 99.7 nM, the TGI [28] was 1160 nM and the GI50 [29] was 1210 nM. For the same compound, the GI50 [30] was 1240 nM, the TGI [30] was 2670 nM and the GI50 [31] was 815 nM. It also gave a TGI [31] of 2770 nM, a GI50 [32] of 899 nM and a TGI [32] of 2270 nM. It also gave a GI50 [33] of 2140 nM, a TGI [33] of 5650 nM and a GI50 [34] of 773 nM. For the same compound, the TGI [34] was 1840 nM, the GI50 [35] was 1050 nM and the TGI [35] was 6070 nM. For the same compound, the GI50 [36] was 197 nM, the TGI [36] was 457 nM and the GI50 [37] was 1910 nM. It also gave a TGI [37] of 3920 nM, a GI50 [38] of 2210 nM and a TGI [38] of 5100 nM. For the same compound, the GI50 [39] was 1030 nM, the TGI [39] was 2320 nM and the GI50 [40] was 1250 nM. It also gave a TGI [40] of 2990 nM, a GI50 [41] of 1860 nM and a TGI [41] of 4560 nM. For the same compound, the GI50 [42] was 1180 nM, the TGI [42] was 2440 nM and the GI50 [43] was 2040 nM. The TGI [43] was 4280 nM, the GI50 [44] was 277 nM and the TGI [44] was 745 nM. The GI50 [45] was 635 nM, the TGI [45] was 1300 nM and the GI50 [46] was 2400 nM. It also gave a TGI [46] of 6060 nM, a GI50 [47] of 3450 nM and a TGI [47] greater than 100000 nM. For the same compound, the GI50 [48] was 1130 nM, the TGI [48] was 2510 nM and the GI50 [49] was 197 nM. It also gave a TGI [49] of 647 nM, a GI50 [50] of 1190 nM and a TGI [50] of 2640 nM. For the same compound, the GI50 [51] was 597 nM, the TGI [51] was 1200 nM and the GI50 [52] was 152 nM. For the same compound, the TGI [52] was 1880 nM, the GI50 [53] was 1550 nM and the TGI [53] was 2950 nM. For the same compound, the GI50 [54] was 570 nM, the TGI [54] was 1930 nM and the TGI [55] was 1730 nM. The GI50 [56] was 1390 nM, the TGI [56] was 3060 nM and the GI50 [57] was 91 nM. It also gave a TGI [57] of 345 nM, a GI50 [58] of 639 nM and a TGI [58] of 1770 nM.

— PubChem BioAssay (NCI)
